# From EP0888340B1, “4-(BENZO-1,3-DIOXOLYL)-PYRROLIDINE-3-CARBOXYLIC ACID DERIVATIVES AS ENDOTHELIN ANTAGONISTS” (Abbott Laboratories, priority 1996, dated 1997)
# Molecular target: T1, ETB Receptor (Sus scrofa, UniProt P35463)
# T1 construct: Porcine cerebellum was homogenized in 25 volumes (w/v) of 10 mM Hepes (pH 7.4); from tissue; host or cells: porcine cerebellum membranes
# T1 sequence (P35463 27-443): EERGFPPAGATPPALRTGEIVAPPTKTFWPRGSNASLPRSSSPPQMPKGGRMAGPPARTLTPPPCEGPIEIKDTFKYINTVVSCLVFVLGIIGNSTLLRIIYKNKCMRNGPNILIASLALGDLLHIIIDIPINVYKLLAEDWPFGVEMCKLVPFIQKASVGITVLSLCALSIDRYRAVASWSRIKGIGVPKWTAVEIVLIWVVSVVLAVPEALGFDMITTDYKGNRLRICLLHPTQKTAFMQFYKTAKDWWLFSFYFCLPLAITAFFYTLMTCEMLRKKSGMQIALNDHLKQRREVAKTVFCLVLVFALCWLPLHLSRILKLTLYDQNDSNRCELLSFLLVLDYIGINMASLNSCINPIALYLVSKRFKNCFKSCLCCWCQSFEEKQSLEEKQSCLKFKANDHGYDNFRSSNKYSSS
# Test: ETB receptor binding assay: [125I]ET-3 binding to membranes
# Settings: test compound 1 µM; displacement of 0.1 nM [125I]ET-3; Porcine cerebellum membranes; 4 hours at 25 °C
# Description: Preparation of membranes from Porcine cerebellum:
# Porcine cerebellum was homogenized in 25 volumes (w/v) of 10 mM Hepes (pH 7.4) containing 0.25 M sucrose and protease inhibitors (3 mM EDTA, 0.1 mM PMSF, and 5 µg/ml Pepstatin A) by 3-10 sec polytron at 13,500 rpm with 10 sec intervals. The mixture was centrifuged at 1000xg for 10 min. The supernatant was collected and centrifuged at 30,000xg for 30 min. The precipitate was resuspended in Buffer A (20 mM Tris, 100 mM NaCl, 10 mM MgCl2, pH 7.4) containing the aforementioned protease inhibitors and centrifuged again. The final pellet was resuspended in Buffer A containing protease inhibitors and stored at -80°C until used. Protein content was determined by the Bio-Rad dye-binding protein assay.
# [^125I]ET-3 binding to membranes:
# Binding assays were performed in 96-well microtiter plates pretreated with 0.1% BSA. Membranes prepared from cells were diluted ∼100 fold in Buffer B (20 mM Tris, 100 mM NaCl, 10 mM MgCl2, pH 7.4, with 0.2% BSA, 0.1 mM PMSF, 5 µg/mL Pepstatin A, 0.025% bacitracin, and 3 mM EDTA) to a final concentration of 0.2 mg/mL of protein. In competition studies, membranes (0.02 mg) were incubated with 0.1 nM of [^125I]ET-3 in Buffer B (final volume: 0.2 mL) in the presence of increasing concentrations of unlabeled ET-3 or a test compound for 4 hours at 25 °C. After incubation, unbound ligands were separated from bound ligands by a vacuum filtration method using glass-fiber filter strips in PHD cell harvesters (Cambridge Technology, Inc., MA), followed by washing the filter strips with saline (1 mL) for three times. Nonspecific binding was determined in the presence of 1 µM ET-1. The per cent inhibition at a concentration of 1 µM is shown. […]
row,SMILES,inhibition at 1 µM [%]
1,"CCOc1ccc([C@H]2[C@H](C(=O)O)[C@@H](c3ccc4c(c3)OCO4)CN2CC(=O)Nc2c(CC)cccc2CC)cc1 [Example 23, (2R,3R,4S)-2-(4-ethoxyphenyl)-4-(1,3-benzodioxol-5-yl)-1-((2,6-diethyl)phenylaminocarbonylmethyl)-pyrrolidine-3-carboxylic acid]",99.1
2,"COc1ccc([C@H]2[C@H](C(=O)O)[C@@H](c3ccc4c(c3)OCO4)CN2CC(=O)Nc2c(C)cccc2C(C)C)cc1 [Example 26, trans,trans-2-(4-methoxyphenyl)-4-(1,3-benzodioxol-5-yl)-1-((2-isopropyl-6-methyl)phenylaminocarbonylmethyl)-pyrrolidine-3-carboxylic acid]",98
3,"CCc1cccc(OC)c1NC(=O)CN1C[C@H](c2ccc3c(c2)OCO3)[C@@H](C(=O)O)[C@@H]1c1ccc(OC)cc1 [Example 27, trans,trans-2-(4-Methoxyphenyl)-4-(1,3-benzodioxol-5-yl)-1-(N-(2-ethyl-6-methoxy)phenylaminocarbonylmethyl)-pyrrolidine-3-carboxylic acid]",98.8

# Results, then the compound that gave them:
row,inhibition at 1 µM [%],SMILES
1,95.3,"CCc1cc(C)cc(CC)c1NC(=O)CN1C[C@H](c2ccc3c(c2)OCO3)[C@@H](C(=O)O)[C@@H]1c1ccc(OC)cc1 [Example 22, trans,trans-2-(4-methoxyphenyl)-4-(1,3-benzodioxol-5-yl)-1-((2,6-diethyl-4-methyl)phenylaminocarbonylmethyl)-pyrrolidine-3-carboxylic acid]"
2,93.3,"CCc1cc(C(=O)O)cc(CC)c1NC(=O)CN1C[C@H](c2ccc3c(c2)OCO3)[C@@H](C(=O)O)[C@@H]1c1ccc(OC)cc1 [Example 24, trans,trans-2-(4-methoxyphenyl)-4-(1,3-benzodioxol-5-yl)-1-((4-carboxy-2,6-diethyl)phenylaminocarbonylmethyl)-pyrrolidine-3-carboxylic acid]"
3,95.7,"CCc1cc([N+](=O)[O-])cc(CC)c1NC(=O)CN1C[C@H](c2ccc3c(c2)OCO3)[C@@H](C(=O)O)[C@@H]1c1ccc(OC)cc1 [Example 25, trans,trans-2-(4-methoxyphenyl)-4-(1,3-benzodioxol-5-yl)-1-((4-nitro-2,6-diethyl)phenylaminocarbonylmethyl)-pyrrolidine-3-carboxylic acid]"
